“And” between values parts separate entries of the source, which are not always exact repeats. Equal entries are not always repeated. Toxic doses and inconclusive results are not listed.
System: L1210 leukemia ip in BDF1 mice, survival T/C
Assay: NCI In Vivo Anticancer Drug Screen. Data for tumor model L1210 Leukemia (intraperitoneal) in B6D2F1 (BDF1) mice
Settings: endpoint: mean survival time, higher = longer survival
Procedure, shortened: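 Tumor cells were implanted, animals were treated, and survival was followed. The result divides the treated measurement by the vehicle-control measurement.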

NC(CSC(c1ccccc1)(c1ccccc1)c1ccccc1)C(=O)O (stereo not drawn)
T/C (dose: 31.25 mg/kg/injection, schedule: Q03HX012 (ip), vehicle: clinical formulation): 118 % of control | T/C (dose: 31.25 mg/kg/injection, schedule: Q03HX012 (ip), vehicle: water): 118 % of control | T/C (dose: 35.0 mg/kg/injection, schedule: Q03HX008 (ip), vehicle: other): 122 % of control | T/C (dose: 35.0 mg/kg/injection, schedule: Q03HX024 (ip), vehicle: other): 107 % of control | T/C (dose: 35.0 mg/kg/injection, schedule: Q04DX003 (ip), vehicle: clinical formulation): 96 % of control | T/C (dose: 35.0 mg/kg/injection, schedule: Q04DX003 (ip), vehicle: other): 113 % of control | T/C (dose: 35.0 mg/kg/injection, schedule: Q## X006 (ip), vehicle: other): 124 % of control | T/C (dose: 35.5 mg/kg/injection, schedule: Q01DX009 (ip), vehicle: other): 107 % of control | T/C (dose: 47.0 mg/kg/injection, schedule: Q04DX003 (ip), vehicle: other): 119 % of control | T/C (dose: 48.0 mg/kg/injection, schedule: Q03HX024 (oral), vehicle: clinical formulation): 106 % of control | T/C (dose: 50.0 mg/kg/injection, schedule: Q01DX009 (oral), vehicle: other): 123 % of control | T/C (dose: 50.0 mg/kg/injection, schedule: Q01DX Z (ip), vehicle: carboxymethylcellulose (CMC)): 102 % of control | T/C (dose: 52.8 mg/kg/injection, schedule: Q03HX024 (ip), vehicle: clinical formulation): 105 % of control | T/C (dose: 52.8 mg/kg/injection, schedule: Q04DX003 (ip), vehicle: clinical formulation): 95 % of control and 105 % of control | T/C (dose: 70.0 mg/kg/injection, schedule: Q01DX001 (ip), vehicle: other): 121 % of control | T/C (dose: 70.0 mg/kg/injection, schedule: Q03HX008 (ip), vehicle: other): 101 % of control | T/C (dose: 70.0 mg/kg/injection, schedule: Q04DX003 (ip), vehicle: clinical formulation): 107 % of control | T/C (dose: 70.0 mg/kg/injection, schedule: Q## X006 (ip), vehicle: other): 121 % of control | T/C (dose: 78.0 mg/kg/injection, schedule: Q02DX005 (ip), vehicle: other): 152 % of control | T/C (dose: 78.0 mg/kg/injection, schedule: Q04DX003 (ip), vehicle: other): 114 % of control | T/C (dose: 78.0 mg/kg/injection, schedule: Q08DX002 (ip), vehicle: other): 110 % of control | T/C (dose: 80.0 mg/kg/injection, schedule: Q03HX024 (ip), vehicle: clinical formulation): 115 % of control | T/C (dose: 80.0 mg/kg/injection, schedule: Q04DX003 (ip), vehicle: clinical formulation): 94 % of control and 108 % of control | T/C (dose: 100.0 mg/kg/injection, schedule: Q01DX009 (ip), vehicle: saline with Tween-80): 108 % of control | T/C (dose: 100.0 mg/kg/injection, schedule: Q01DX009 (oral), vehicle: other): 118 % of control | T/C (dose: 100.0 mg/kg/injection, schedule: Q01DX Z (ip), vehicle: other): 115 % of control | T/C (dose: 100.0 mg/kg/injection, schedule: Q01DX Z (ip), vehicle: saline): 150 % of control | T/C (dose: 100.0 mg/kg/injection, schedule: Q02DX005 (oral), vehicle: other): 121 % of control | T/C (dose: 112.0 mg/kg/injection, schedule: Q03HX024 (oral), vehicle: clinical formulation): 96 % of control | T/C (dose: 112.0 mg/kg/injection, schedule: Q03HX024 (oral), vehicle: saline): 103 % of control | T/C (dose: 112.0 mg/kg/injection, schedule: Q04DX003 (ip), vehicle: clinical formulation): 122 % of control | T/C (dose: 125.0 mg/kg/injection, schedule: Q02DX009 (ip), vehicle: other): 97 % of control | T/C (dose: 130.0 mg/kg/injection, schedule: Q08DX002 (ip), vehicle: other): 124 % of control | T/C (dose: 140.0 mg/kg/injection, schedule: Q01DX001 (ip), vehicle: other): 118 % of control | T/C (dose: 150.0 mg/kg/injection, schedule: Q01DX Z (ip), vehicle: saline): 109 % of control | T/C (dose: 160.0 mg/kg/injection, schedule: Q03HX024 (ip), vehicle: saline): 110 % of control | T/C (dose: 240.0 mg/kg/injection, schedule: Q03HX024 (ip), vehicle: saline): 92 % of control | T/C (dose: 250.0 mg/kg/injection, schedule: Q02DX009 (ip), vehicle: other): 103 % of control | T/C (dose: 250.0 mg/kg/injection, schedule: Q02DX009 (oral), vehicle: other): 121 % of control | T/C (dose: 250.0 mg/kg/injection, schedule: Q04DX005 (oral), vehicle: other): 121 % of control | T/C (dose: 250.0 mg/kg/injection, schedule: Q08DX003 (oral), vehicle: other): 111 % of control | T/C (dose: 280.0 mg/kg/injection, schedule: Q01DX001 (ip), vehicle: other): 107 % of control | T/C (dose: 280.0 mg/kg/injection, schedule: Q04DX003 (ip), vehicle: saline): 107 % of control | T/C (dose: 400.0 mg/kg/injection, schedule: Q01DX009 (oral), vehicle: other): 120 % of control | T/C (dose: 500.0 mg/kg/injection, schedule: Q08DX003 (oral), vehicle: other): 124 % of control | T/C (dose: 800.0 mg/kg/injection, schedule: Q08DX002 (oral), vehicle: other): 113 % of control | T/C (dose: 1000.0 mg/kg/injection, schedule: Q02DX009 (oral), vehicle: other): 112 % of control | T/C (dose: 2000.0 mg/kg/injection, schedule: Q08DX003 (oral), vehicle: other): 151 % of control

Source: PubChem BioAssay AID248 (DTP/NCI, 2004)
